Measured values reported in patent publication US7863449B2, “Modulators of muscarinic receptors” (Vertex Pharmaceuticals Incorporated, priority 2004, dated 2011).
Counter-ions that a name gives are not always drawn.

Tests used:
[1] = target: T1, M1 muscarinic receptor (Homo sapiens, UniProt P11229); test: Functional mobilization of intracellular calcium (FLIPR), M1-CHO cells; assay type: cell-based; conditions: for Emax: 100% efficacy is the maximum response obtained using Carbachol as a control; for M1 Activity: M1-CHO cells, FLIPR calcium mobilization
T1 construct: expressed in transfected cells; host or cells: CHO (M1-CHO)
T1 sequence (P11229 1-460): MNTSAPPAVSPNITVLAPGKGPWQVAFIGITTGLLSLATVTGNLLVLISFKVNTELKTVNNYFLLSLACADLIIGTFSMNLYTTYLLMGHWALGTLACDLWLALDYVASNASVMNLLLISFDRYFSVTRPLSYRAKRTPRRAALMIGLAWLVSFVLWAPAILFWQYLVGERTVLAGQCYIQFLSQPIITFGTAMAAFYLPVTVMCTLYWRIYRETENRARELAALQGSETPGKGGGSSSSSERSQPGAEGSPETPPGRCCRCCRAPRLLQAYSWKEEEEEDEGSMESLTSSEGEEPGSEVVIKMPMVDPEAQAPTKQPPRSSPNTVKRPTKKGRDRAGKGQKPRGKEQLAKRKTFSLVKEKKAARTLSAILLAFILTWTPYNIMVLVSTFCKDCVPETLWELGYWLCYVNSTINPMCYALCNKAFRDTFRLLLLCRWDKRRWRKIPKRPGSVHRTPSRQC
How it was run: (§1)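 CHO cells expressing M1 or M4, loaded with Fluo-3 AM or Calcium 3 dye with 1 mM probenecid, 0.5% DMSO final. Agonist mode: compound added directly; antagonist mode: 15 min pre-incubation (or co-application) before carbachol at EC80. Fluorescence recorded 60 s on FLIPR.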

[2] = target: T2, M4 muscarinic receptor (Homo sapiens, UniProt P08173); test: Functional mobilization of intracellular calcium (FLIPR), M4-CHO cells; assay type: cell-based; conditions: for Emax: 100% efficacy is the maximum response obtained using Carbachol as a control; for M4 Activity: M4-CHO cells, FLIPR calcium mobilization
T2 construct: expressed in transfected cells; host or cells: CHO (M4-CHO)
T2 sequence (P08173 1-479): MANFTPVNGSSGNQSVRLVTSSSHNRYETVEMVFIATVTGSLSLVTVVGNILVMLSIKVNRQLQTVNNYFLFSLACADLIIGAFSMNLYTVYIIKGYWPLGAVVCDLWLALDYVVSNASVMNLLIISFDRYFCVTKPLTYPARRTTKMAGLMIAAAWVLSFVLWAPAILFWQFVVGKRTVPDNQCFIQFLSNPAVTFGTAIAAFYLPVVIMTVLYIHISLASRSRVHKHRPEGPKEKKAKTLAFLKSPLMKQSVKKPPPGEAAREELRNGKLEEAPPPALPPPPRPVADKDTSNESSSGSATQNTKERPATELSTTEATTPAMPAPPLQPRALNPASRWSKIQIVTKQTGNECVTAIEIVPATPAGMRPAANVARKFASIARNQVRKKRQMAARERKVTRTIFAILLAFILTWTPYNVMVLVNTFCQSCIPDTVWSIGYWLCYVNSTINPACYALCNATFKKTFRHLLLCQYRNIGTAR
How it was run: as §1

Structure (SMILES) | Emax [1] | M1 Activity [1] | Emax [2] | M4 Activity [2]
CCOC(=O)N1CCC(CN2CCC3(CC2)CN(C(=O)OC2CCCC2)Cc2ccccc23)CC1 [compound 263] | 25 to 100% | +++ (activity was measured to be less than 1.0 μM) | 25 to 100% | +++ (activity was measured to be less than 1.0 μM)
CCOC(=O)N1CCC(CN2CCC3(CC2)CN(C(=O)Nc2c(C)noc2C)Cc2ccccc23)CC1 [compound 171] | 25 to 100% | +++ (activity was measured to be less than 1.0 μM) | 25 to 100% | +++ (activity was measured to be less than 1.0 μM)
CCOC(=O)N1C2CCC1CC(N1CCC3(CC1)CN(S(=O)(=O)c1ccc(C(F)(F)F)cc1)Cc1ccccc13)C2 (stereo not drawn) [compound 251] | 25 to 100% | +++ (activity was measured to be less than 1.0 μM) | 25 to 100% | +++ (activity was measured to be less than 1.0 μM)
CCOC(=O)N1CCC(CN2CCC3(CC2)CN(C(=O)c2ccccc2)Cc2ccccc23)CC1 [compound 147, Ethyl 4-((2-benzoyl-2,3-dihydro-1H-spiro[isoquinoline-4,4′-piperidine]-1′-yl)methyl)piperidine-1-carboxylate hydrochloride] | 25 to 100% | +++ (activity was measured to be less than 1.0 μM) | 25 to 100% | +++ (activity was measured to be less than 1.0 μM)
CCCOC(=O)N1C2CCC1CC(N1CCC3(CC1)CN(C(=O)N(C)C)Cc1ccccc13)C2 (stereo not drawn) [compound 7] | 25 to 100% | +++ (activity was measured to be less than 1.0 μM) | 25 to 100% | +++ (activity was measured to be less than 1.0 μM)
CCOC(=O)N1CCC(N2CCC3(CC2)CN(C(=O)CC(C)C)Cc2ccccc23)CC1 [compound 229] | 25 to 100% | +++ (activity was measured to be less than 1.0 μM) | 25 to 100% | +++ (activity was measured to be less than 1.0 μM)
CCOC(=O)N1C2CCC1CC(N1CCC3(CC1)CN(C(=O)NC1CCCCC1)Cc1ccccc13)C2 (stereo not drawn) [compound 358] | 25 to 100% | +++ (activity was measured to be less than 1.0 μM) | 25 to 100% | +++ (activity was measured to be less than 1.0 μM)
CCOC(=O)N1CCC(N2CCC3(CC2)CN(CC2CCCCC2)Cc2ccccc23)CC1 [compound 87] | 25 to 100% | ++ (activity was measured to be from 1.0 μM to 5.0 μM) | < 25% | ++ (activity was measured to be from 1.0 μM to 5.0 μM)
O=C1NC2(CCN(CC3CC4C=CC3C4)CC2)c2ccccc21 (stereo not drawn) [compound 267, 1′-(bicyclo[2.2.1]hept-5-en-2-ylmethyl)spiro[isoindoline-1,4′-piperidin]-3-one] | 25 to 100% | ++ (activity was measured to be from 1.0 μM to 5.0 μM) | 25 to 100% | ++ (activity was measured to be from 1.0 μM to 5.0 μM)
COc1ccc(CN2CCC3(CC2)CN(C(C)=O)Cc2ccccc23)cc1 [compound 66] | < 25% | + (activity was measured to be greater than 5.0 μM) | < 25% | + (activity was measured to be greater than 5.0 μM)
CCCOC(=O)N1C2CCC1CC(N1CCC3(CC1)CN(S(=O)(=O)N(C)C)Cc1ccccc13)C2 (stereo not drawn) [compound 125] | 25 to 100% | +++ (activity was measured to be less than 1.0 μM) | 25 to 100% | +++ (activity was measured to be less than 1.0 μM)
COc1cccc(CN2CCC3(CC2)CN(C(C)=O)Cc2ccccc23)c1 [compound 121] | < 25% | + (activity was measured to be greater than 5.0 μM) | < 25% | + (activity was measured to be greater than 5.0 μM)
CCOC(=O)N1C2CCC1CC(N1CCC3(CC1)CN(C(=O)CC(C)(C)C)Cc1ccccc13)C2 (stereo not drawn) [compound 162] | 25 to 100% | +++ (activity was measured to be less than 1.0 μM) | 25 to 100% | +++ (activity was measured to be less than 1.0 μM)
CCOC(=O)N1C2CCC1CC(N1CCC3(CC1)CN(C(=O)c1cccnc1)Cc1ccccc13)C2 (stereo not drawn) [compound 17] | 25 to 100% | +++ (activity was measured to be less than 1.0 μM) | 25 to 100% | +++ (activity was measured to be less than 1.0 μM)
CC(=O)N1Cc2ccccc2C2(CCN(Cc3ccccc3C#N)CC2)C1 [compound 322] | < 25% | + (activity was measured to be greater than 5.0 μM) | < 25% | + (activity was measured to be greater than 5.0 μM)
Cc1cc(C(=O)N2Cc3ccccc3C3(CCN(C4CC5CCC(C4)N5C(=O)O[C@@H]4CCOC4)CC3)C2)nn1C (stereo partly drawn) [compound 210] | 25 to 100% | +++ (activity was measured to be less than 1.0 μM) | 25 to 100% | +++ (activity was measured to be less than 1.0 μM)
CCOC(=O)N1C2CCC1CC(N1CCC3(CC1)CN(S(=O)(=O)Cc1ccccc1)Cc1ccccc13)C2 (stereo not drawn) [compound 218] | 25 to 100% | +++ (activity was measured to be less than 1.0 μM) | 25 to 100% | +++ (activity was measured to be less than 1.0 μM)
CCCOC(=O)N1C2CCC1CC(N1CCC3(CC1)CN(S(=O)(=O)CCC)Cc1ccccc13)C2 (stereo not drawn) [compound 353] | 25 to 100% | +++ (activity was measured to be less than 1.0 μM) | 25 to 100% | +++ (activity was measured to be less than 1.0 μM)
CCOC(=O)N1CCC(N2CCC3(CC2)CN(CC#Cc2ccccc2)Cc2ccccc23)CC1 [compound 9] | 25 to 100% | +++ (activity was measured to be less than 1.0 μM) | 25 to 100% | +++ (activity was measured to be less than 1.0 μM)
CCOC(=O)N1CCC(N2CCC3(CC2)CN(C(=O)c2ccccc2)Cc2ccccc23)CC1 [compound 221] | 25 to 100% | +++ (activity was measured to be less than 1.0 μM) | 25 to 100% | +++ (activity was measured to be less than 1.0 μM)
CC(=O)N1Cc2ccccc2C2(CCN(C3CC4CCC(C4)C3)CC2)C1 (stereo not drawn) [compound 21] | 25 to 100% | + (activity was measured to be greater than 5.0 μM) | 25 to 100% | + (activity was measured to be greater than 5.0 μM)
CCOC(=O)N1CCC(N2CCC3(CC2)CN(S(=O)(=O)c2c(C)noc2C)Cc2ccccc23)CC1 [compound 25] | 25 to 100% | +++ (activity was measured to be less than 1.0 μM) | 25 to 100% | +++ (activity was measured to be less than 1.0 μM)
CCOC(=O)N1CC(CN2CCC3(CC2)CN(C(C)=O)Cc2ccccc23)C1 [compound 1] | 25 to 100% | ++ (activity was measured to be from 1.0 μM to 5.0 μM) | < 25% | ++ (activity was measured to be from 1.0 μM to 5.0 μM)
CC(=O)N1Cc2ccccc2C2(CCN(C3CCC4(CC3)OCCO4)CC2)C1 [compound 93] | 25 to 100% | + (activity was measured to be greater than 5.0 μM) | < 25% | + (activity was measured to be greater than 5.0 μM)
CCOC(=O)N1CCC(CN2CCC3(CC2)CN(C(=O)OCCOC)Cc2ccccc23)CC1 [compound 22] | 25 to 100% | +++ (activity was measured to be less than 1.0 μM) | 25 to 100% | +++ (activity was measured to be less than 1.0 μM)
COCCOC(=O)N1C2CCC1CC(N1CCC3(CC1)CN(C(=O)OC)Cc1ccccc13)C2 (stereo not drawn) [compound 183] | 25 to 100% | +++ (activity was measured to be less than 1.0 μM) | 25 to 100% | +++ (activity was measured to be less than 1.0 μM)
CCOC(=O)N1C2CCC1CC(N1CCC3(CC1)CN(C(=O)NC1CCCC1)Cc1ccccc13)C2 (stereo not drawn) [compound 321] | 25 to 100% | +++ (activity was measured to be less than 1.0 μM) | 25 to 100% | +++ (activity was measured to be less than 1.0 μM)
